Data on 10 molecules can be found in publication PMC3755381 (Australian journal of chemistry, 2012).

A value given as a limit tells only on which side of the number the result lay.

What all share (assay type): biochemical
The target of assay [1] is PI3Kα (Homo sapiens, UniProt P42336). As to the kind of experiment: PI3Kα inhibition.
The target of assay [2] is PI3Kβ (Homo sapiens, UniProt P42338). The experiment in a line: PI3Kβ inhibition.
For assay [3], the target named is PI3Kγ (Homo sapiens, UniProt P48736). The experiment in a line: PI3Kγ inhibition.
Assay [4] concerns the target PI3Kδ (Homo sapiens, UniProt O00329). The experiment in a line: PI3Kδ inhibition.
Assay [5] has as its target PDE2 (Homo sapiens, UniProt O00408). As to the kind of experiment: PDE2 inhibition.
For assay [6], the system named is PDE4. The experiment in a line: PDE4 inhibition. The conditions noted are these: for IC50: read-out: PDE4 inhibition IC50.
The subject of assay [7] is class I PI3K isoforms. The experiment in a line: Inhibition of PI3K isoforms. The conditions noted are these: for inhibition of PI3K: same compounds synthesized by compound 5 as key intermediate (no contaminant).

Sequence of PI3Kα (P42336 whole entry, species assumed): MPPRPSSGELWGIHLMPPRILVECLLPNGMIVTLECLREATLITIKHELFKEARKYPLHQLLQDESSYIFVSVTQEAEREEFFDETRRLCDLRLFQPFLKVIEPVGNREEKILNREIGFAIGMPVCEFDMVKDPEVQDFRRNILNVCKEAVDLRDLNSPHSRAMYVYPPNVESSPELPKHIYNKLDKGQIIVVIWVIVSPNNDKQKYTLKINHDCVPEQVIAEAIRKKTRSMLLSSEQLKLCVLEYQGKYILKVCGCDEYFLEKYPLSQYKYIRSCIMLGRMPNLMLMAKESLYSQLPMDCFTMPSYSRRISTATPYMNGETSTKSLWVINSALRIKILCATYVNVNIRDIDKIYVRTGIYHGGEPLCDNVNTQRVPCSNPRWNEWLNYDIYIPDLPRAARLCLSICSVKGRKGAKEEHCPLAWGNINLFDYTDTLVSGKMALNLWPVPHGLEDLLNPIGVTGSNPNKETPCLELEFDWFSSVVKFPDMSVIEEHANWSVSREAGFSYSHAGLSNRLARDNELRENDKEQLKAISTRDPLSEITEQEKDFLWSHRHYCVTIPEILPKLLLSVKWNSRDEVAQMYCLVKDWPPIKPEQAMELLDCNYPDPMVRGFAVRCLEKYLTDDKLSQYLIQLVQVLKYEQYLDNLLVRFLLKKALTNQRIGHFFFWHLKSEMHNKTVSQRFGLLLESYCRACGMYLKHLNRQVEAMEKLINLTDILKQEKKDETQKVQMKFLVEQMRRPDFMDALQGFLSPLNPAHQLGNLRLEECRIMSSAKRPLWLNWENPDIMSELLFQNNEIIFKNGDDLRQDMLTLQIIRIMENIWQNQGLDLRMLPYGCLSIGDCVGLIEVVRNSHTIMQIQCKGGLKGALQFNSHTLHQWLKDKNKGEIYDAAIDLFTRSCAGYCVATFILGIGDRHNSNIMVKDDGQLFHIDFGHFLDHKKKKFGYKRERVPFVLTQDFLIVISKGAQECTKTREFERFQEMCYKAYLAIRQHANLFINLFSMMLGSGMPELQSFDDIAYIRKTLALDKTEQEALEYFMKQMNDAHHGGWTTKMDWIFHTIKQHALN
Sequence of PI3Kα (P27986 whole entry partner, species assumed): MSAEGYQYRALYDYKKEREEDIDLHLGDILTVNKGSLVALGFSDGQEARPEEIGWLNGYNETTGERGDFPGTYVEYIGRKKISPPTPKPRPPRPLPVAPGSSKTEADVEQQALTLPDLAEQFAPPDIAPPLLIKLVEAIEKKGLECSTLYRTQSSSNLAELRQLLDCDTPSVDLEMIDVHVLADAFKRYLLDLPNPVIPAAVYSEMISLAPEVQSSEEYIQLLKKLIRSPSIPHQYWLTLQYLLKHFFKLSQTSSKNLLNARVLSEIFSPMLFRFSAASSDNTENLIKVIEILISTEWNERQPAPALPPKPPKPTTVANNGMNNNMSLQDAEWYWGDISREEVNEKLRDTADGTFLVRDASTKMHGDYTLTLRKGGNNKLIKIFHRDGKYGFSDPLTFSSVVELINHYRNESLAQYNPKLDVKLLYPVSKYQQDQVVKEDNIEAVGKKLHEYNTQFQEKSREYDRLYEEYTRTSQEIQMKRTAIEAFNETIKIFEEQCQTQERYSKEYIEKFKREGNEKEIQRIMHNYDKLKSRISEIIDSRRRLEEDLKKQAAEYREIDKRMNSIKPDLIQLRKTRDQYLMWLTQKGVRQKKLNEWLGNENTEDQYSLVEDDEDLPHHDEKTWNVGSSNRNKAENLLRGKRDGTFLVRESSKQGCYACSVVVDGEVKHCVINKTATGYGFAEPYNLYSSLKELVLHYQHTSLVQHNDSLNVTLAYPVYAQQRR
Sequence of PI3Kγ (P48736 whole entry, species assumed): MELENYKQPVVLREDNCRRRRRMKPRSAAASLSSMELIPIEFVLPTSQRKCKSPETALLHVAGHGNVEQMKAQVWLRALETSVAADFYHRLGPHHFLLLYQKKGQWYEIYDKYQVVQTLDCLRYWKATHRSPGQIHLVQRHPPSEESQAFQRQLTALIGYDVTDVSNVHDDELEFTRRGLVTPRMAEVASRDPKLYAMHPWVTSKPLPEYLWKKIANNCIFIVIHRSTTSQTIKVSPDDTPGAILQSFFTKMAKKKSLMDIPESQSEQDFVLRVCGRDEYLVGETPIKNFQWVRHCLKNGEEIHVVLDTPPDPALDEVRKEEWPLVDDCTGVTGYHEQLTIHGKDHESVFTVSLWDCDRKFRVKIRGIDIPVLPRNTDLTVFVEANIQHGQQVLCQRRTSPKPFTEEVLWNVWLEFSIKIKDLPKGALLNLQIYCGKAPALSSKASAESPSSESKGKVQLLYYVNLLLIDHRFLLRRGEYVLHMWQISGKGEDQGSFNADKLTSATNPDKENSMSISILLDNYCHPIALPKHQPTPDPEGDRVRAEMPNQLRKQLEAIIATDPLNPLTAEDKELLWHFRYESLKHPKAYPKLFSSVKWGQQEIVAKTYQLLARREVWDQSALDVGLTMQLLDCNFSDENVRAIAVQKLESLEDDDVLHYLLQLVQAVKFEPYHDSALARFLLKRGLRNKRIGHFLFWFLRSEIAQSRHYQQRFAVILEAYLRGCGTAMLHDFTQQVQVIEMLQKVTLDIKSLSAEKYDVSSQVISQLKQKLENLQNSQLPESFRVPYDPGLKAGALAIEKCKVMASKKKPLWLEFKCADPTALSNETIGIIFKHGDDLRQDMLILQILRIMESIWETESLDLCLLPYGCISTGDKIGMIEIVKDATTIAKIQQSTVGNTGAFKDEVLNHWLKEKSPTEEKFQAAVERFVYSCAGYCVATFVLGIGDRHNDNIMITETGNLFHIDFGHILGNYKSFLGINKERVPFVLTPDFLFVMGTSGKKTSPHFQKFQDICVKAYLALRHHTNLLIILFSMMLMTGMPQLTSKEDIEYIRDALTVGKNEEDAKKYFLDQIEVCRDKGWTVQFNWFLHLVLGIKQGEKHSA
Sequence of PDE2 (O00408 whole entry): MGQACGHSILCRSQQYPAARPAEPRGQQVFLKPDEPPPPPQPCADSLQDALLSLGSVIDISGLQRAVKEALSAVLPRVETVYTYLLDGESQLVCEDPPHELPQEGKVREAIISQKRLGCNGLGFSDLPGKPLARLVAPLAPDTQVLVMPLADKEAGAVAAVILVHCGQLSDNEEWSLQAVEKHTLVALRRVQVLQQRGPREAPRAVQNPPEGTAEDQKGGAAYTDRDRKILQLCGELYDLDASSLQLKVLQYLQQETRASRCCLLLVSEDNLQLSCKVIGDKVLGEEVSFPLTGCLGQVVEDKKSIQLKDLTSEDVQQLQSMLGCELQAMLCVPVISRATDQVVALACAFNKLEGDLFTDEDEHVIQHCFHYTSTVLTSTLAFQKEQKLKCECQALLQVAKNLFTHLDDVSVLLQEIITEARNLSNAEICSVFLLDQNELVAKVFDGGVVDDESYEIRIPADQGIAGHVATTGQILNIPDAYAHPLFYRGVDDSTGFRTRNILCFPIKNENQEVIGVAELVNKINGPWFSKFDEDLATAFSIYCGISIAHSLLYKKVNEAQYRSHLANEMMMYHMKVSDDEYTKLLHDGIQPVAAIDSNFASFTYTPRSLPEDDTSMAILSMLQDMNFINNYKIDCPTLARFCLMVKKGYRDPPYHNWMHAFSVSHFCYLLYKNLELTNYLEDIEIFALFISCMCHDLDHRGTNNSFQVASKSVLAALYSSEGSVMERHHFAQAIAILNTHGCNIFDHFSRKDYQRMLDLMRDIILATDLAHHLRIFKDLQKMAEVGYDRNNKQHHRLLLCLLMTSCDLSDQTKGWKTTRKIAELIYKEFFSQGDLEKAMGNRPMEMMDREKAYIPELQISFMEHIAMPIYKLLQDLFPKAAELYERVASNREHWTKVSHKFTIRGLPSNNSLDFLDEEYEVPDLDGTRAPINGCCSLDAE
Sequence of PI3Kδ (O00329 whole entry, species assumed): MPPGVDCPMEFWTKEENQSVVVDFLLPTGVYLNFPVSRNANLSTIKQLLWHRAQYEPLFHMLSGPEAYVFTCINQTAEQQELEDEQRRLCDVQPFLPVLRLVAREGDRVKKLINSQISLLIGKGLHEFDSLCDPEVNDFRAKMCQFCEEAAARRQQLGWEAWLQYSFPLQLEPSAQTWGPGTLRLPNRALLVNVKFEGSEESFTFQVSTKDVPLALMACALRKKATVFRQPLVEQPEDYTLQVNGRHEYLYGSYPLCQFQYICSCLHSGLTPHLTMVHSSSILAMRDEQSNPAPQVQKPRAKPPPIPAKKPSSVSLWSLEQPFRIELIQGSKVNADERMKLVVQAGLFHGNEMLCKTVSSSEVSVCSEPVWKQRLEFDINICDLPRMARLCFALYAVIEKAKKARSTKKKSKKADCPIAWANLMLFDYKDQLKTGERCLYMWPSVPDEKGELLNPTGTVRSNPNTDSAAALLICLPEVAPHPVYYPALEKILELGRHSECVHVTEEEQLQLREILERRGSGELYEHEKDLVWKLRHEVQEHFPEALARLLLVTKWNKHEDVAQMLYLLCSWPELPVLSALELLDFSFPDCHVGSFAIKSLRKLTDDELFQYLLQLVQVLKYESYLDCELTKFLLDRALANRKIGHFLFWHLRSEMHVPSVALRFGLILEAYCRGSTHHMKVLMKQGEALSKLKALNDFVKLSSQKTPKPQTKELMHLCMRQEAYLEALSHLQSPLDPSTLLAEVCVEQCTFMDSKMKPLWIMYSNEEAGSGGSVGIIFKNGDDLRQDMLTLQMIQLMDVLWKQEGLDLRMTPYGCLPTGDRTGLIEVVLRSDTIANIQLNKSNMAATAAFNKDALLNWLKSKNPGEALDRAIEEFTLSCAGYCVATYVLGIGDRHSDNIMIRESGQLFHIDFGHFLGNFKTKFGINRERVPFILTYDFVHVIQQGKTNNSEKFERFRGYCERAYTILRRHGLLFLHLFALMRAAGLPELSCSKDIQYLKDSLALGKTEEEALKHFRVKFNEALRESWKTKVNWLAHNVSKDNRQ
Sequence of PI3Kδ (P27986 whole entry partner, species assumed): as the sequence (P27986 whole entry partner, species assumed) above

Consider `CSC1=NC(=O)S/C1=C\c1ccc2c(c1)OCO2` [Compound 5, (Z)-5-(Benzo[d][1,3]dioxol-5-ylmethylene)-4-(methylthio)thiazol-2(5H)-one], for which the IC50 (as a rule, the concentration needed to halve the response being measured) in assay [1] is 0.056 µM; in assay [2] it was more than 1 µM; in assay [3], 0.06 µM; in assay [4], 0.038 µM.

Take `C/N=C1\NC(=O)S\C1=C/c1ccc2c(c1)OCO2` [Compound 7x, (4Z,5Z)-5-(Benzo[d][1,3]dioxol-5-ylmethylene)-4-(methylimino)thiazolidin-2-one]: the IC50 in assay [1] is 90 µM; in assay [2], more than 100 µM; in assay [3], more than 100 µM; in assay [4] it was more than 100 µM; in assay [5] it was more than 10 µM; in assay [6], more than 10 µM. In addition, the “activity against PDE2 (in words)” value in assay [5] is “virtually inactive”. Further, in assay [6], the “activity against PDE4 (in words)” value is “virtually inactive”.

As for `O=C1NC(=S)/C(=C/c2ccc3c(c2)OCO3)S1` [Compound 4, (Z)-5-(Benzo[d][1,3]dioxol-5-ylmethylene)-4-thioxothiazolidin-2-one], the results for the IC50 in assay [2], in assay [3] and in assay [4] were 0.15 µM, 0.12 µM and 0.76 µM, respectively.

On to `C[C@H](/N=C1\NC(=O)S\C1=C/c1ccc2c(c1)OCO2)C(=O)O` [Compound 7aa, (S)-2-((Z)-((Z)-5-(Benzo[d][1,3]dioxol-5-ylmethylene)-2-oxothiazolidin-4-ylidene)amino)propanoic Acid], for which the IC50 in assay [1] was found to be 19 µM; in assay [2] it was 94 µM; in assay [3], 14.5 µM; in assay [4], 62 µM.

`COc1ccc(C/N=C2\NC(=O)S\C2=C/c2ccc3c(c2)OCO3)cc1OC` [Compound 7p, (4Z,5Z)-5-(Benzo[d][1,3]dioxol-5-ylmethylene)-4-((3,4-dimethoxybenzyl)imino)thiazolidin-2-one]: the IC50 in assay [1] is more than 100 µM; in assay [2] it was more than 100 µM; in assay [3] it was more than 100 µM; in assay [4] it was more than 100 µM; in assay [5] it was 4.7 µM; in assay [6], 5.1 µM. In addition, in assay [7], the “inhibition of PI3K isoforms (in words)” value was “no inhibition”.

For the molecule `CC(O)C/N=C1\NC(=O)S\C1=C/c1ccc2c(c1)OCO2` (stereo not shown) [Compound 7z, (4Z,5Z)-5-(Benzo[d][1,3]dioxol-5-ylmethylene)-4-((2-hydroxypropyl)imino)thiazolidin-2-one], the IC50 in assay [1] is more than 100 µM; in assay [2], more than 100 µM; in assay [3] it was more than 100 µM; in assay [4], more than 100 µM; in assay [5], more than 10 µM; in assay [6] it was more than 10 µM. Further, in assay [5], the “activity against PDE2 (in words)” value is “virtually inactive”. For the same molecule, in assay [6], the “activity against PDE4 (in words)” value is “virtually inactive”.

As for `O=C1NC(=N\[C@@H](Cc2c[nH]c3ccccc23)C(=O)O)/C(=C/c2ccc3c(c2)OCO3)S1` [Compound 7ab], the IC50 in assay [1] was 26 µM; in assay [2], 80 µM; in assay [3], 11 µM; in assay [4] it was 43 µM.

As to `O=C1NC(=O)/C(=C/c2ccc3c(c2)OCO3)S1` [Compound 2, (Z)-5-(Benzo[d][1,3]dioxol-5-ylmethylene) thiazolidine-2,4-dione, reference compound], the IC50 in assay [2] turned out to be 0.6 µM; in assay [3], 0.04 µM. The “inhibition of PI3K isoforms (in words)” value in assay [7] was “potent inhibitor”.

As for `O=C1NC(=N\C2CCCC2)/C(=C/c2ccc3c(c2)OCO3)S1` [Compound 7f, (4Z,5Z)-5-(Benzo[d][1,3]dioxol-5-ylmethylene)-4-(cyclopentylimino)thiazolidin-2-one], the “inhibition of PI3K” value in assay [7] is listed as “no inhibition”.

With `O=C1NC(=N\CCc2ccc(O)cc2)/C(=C/c2ccc3c(c2)OCO3)S1` [Compound 7e, (4Z,5Z)-5-(Benzo[d][1,3]dioxol-5-ylmethylene)-4-((4-hydroxyphenethyl)imino)thiazolidin-2-one], the “inhibition of PI3K” value in assay [7] is given as “no inhibition”.
